Experimental data from PubChem BioAssay (NCI).
“And” between values parts separate entries of the source, which are not always exact repeats. Equal entries are not always repeated.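 1) Cells in 96-well plates. 2) Compound, 48 h, 5 concentrations. 3) Linear interpolation between surrounding doses. 4) Unreached endpoint = highest concentration. GI50 is the concentration that inhibits growth by half. The concentration for full growth arrest is given as TGI.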

Assays:
Assay in all cases: NCI anticancer screen, dose series, 48 h
[1] = test system: MDA-MB-435
[2] = test system: MOLT-4 leukemia
[3] = test system: 786-0 renal
[4] = test system: EKVX NSCLC
[5] = test system: RXF 393 renal
[6] = test system: SF-539 CNS
[7] = test system: OVCAR-8 ovarian
[8] = test system: SN12C renal
[9] = test system: HOP-62 NSCLC
[10] = test system: PC-3 prostate

Row | SMILES | TGI [1] [µM] | TGI [2] [µM] | TGI [3] [µM] | TGI [4] | TGI [5] [µM] | TGI [6] [µM] | TGI [7] [µM] | TGI [8] [µM] | TGI [9] | TGI [10] [µM] | GI50 [2] | GI50 [9]
1 | O=C(O)C1Cc2ccccc2OC1=O (stereo not given) | > 100 | > 100 | > 100 | > 100 µM | > 100 | > 100 | > 100 | > 100 | > 100 µM | > 100 |  | 
2 | CCOC(=O)/C(=C\NC#N)c1nc2ccccc2[nH]1 | > 100 | > 100 | > 100 | > 100 µM | > 100 | > 100 | > 100 | > 100 | > 100 µM |  |  | 
3 | C[n+]1c(-c2ccc(/C=N/Nc3n[nH]c(=S)n3N/N=C/c3ccc(-c4cn5ccccc5[n+]4C)cc3)cc2)cn2ccccc21 | > 100 | > 100 | > 100 | > 100 µM |  | > 100 | > 100 | > 100 | > 100 µM | > 100 |  | 
4 | CC[S+](C)c1ccc(-c2c3nc(c(-c4ccc([S+](C)CC)cc4)c4ccc([nH]4)c(-c4ccc([S+](C)CC)cc4)c4nc(c(-c5ccc([S+](C)CC)cc5)c5ccc2[nH]5)C=C4)C=C3)cc1 (stereo not given) |  | 67.1 | > 100 | 94.8 µM | 63.3 | > 100 | > 100 | 60.4 | 93.5 µM |  |  | 
5 | CC(=O)O[C@H]1CC[C@H]2[C@@H]3CC[C@H]4Nc5c(cnn5S(C)(=O)=O)C[C@]4(C)[C@H]3CC[C@]12C | > 100 | > 100 |  |  | > 100 |  | > 100 | > 100 | 77.4 µM | > 100 |  | 
6 | CCOC(=O)C1CCCC1S(=O)(=O)c1ccc(C)cc1 (stereo not given) | > 100 | > 100 | > 100 | > 100 µM | > 100 |  | > 100 | > 100 | > 100 µM | > 100 |  | 
7 | COc1ccc(C2c3c(-c4ccccc4)nn(-c4ccccc4)c3Oc3ncn(N)c(=N)c32)cc1OC (stereo not given) | 4.2 | > 34.4 | 3 | 4.13 µM | 4.53 | 2.6 | 5.89 | 8.45 |  | 4.08 |  | 
8 | Cc1ccc(-c2nc3n(c2/C=N\N=C(N)N)CCS3)cc1 | 28.9 | > 100 | 29.3 | 30.9 µM | 29.6 | 28.5 | 29.3 | 29.6 | 28.6 µM | 28.5 |  | 
9 | CC(=N\N=C\c1ccccn1)/C(C)=N/N=C/c1ccccn1 | > 100 |  | > 100 | > 100 µM | > 100 | > 100 | > 100 | > 100 | > 100 µM | > 100 |  | 
10 | CCc1c(-c2coc(CC/C(C)=C/c3ccccc3)n2)oc(OC)c(C)c1=O |  | > 100 | > 55.4 | > 100 µM |  | > 65 | > 100 | > 62.2 | > 100 µM |  |  | 
11 | CN1CCN(CCCCNc2cc3c4ccccc4c(NCCCCN4CCN(C)CC4)cc3c3ccccc23)CC1 | 0.359 | 1.88 | 3.48 | 18.7 µM | 3.13 | 3.28 | 10.2 | 9.27 | 7.72 µM | 21.2 |  | 
12 | O=C(O)C1C2CCC(C2)C1c1ccccc1 (stereo not given) | > 100 | > 100 | > 100 | > 100 µM | > 100 | > 100 | > 100 | > 100 | > 100 µM | > 100 |  | 
13 | CN(c1ccccc1Cl)S(=O)(=O)c1ccccc1 | > 100 | > 100 | > 100 | > 100 µM |  | > 100 | > 100 | > 100 | > 100 µM | > 100 |  | 
14 | CC1(C)N=C(/C(C#N)=[N+](/[O-])C(=O)c2ccccc2)C(C)(C)N1O | > 100 | > 100 | > 100 | > 100 µM | > 100 | > 100 | > 100 | > 100 | > 100 µM | > 100 |  | 
15 | O=C(O)c1ccc(/C=N\N(CCO)C2=NCCN2)cc1 | > 100 | > 100 | > 100 | > 100 µM | > 100 | > 100 | > 100 | > 100 | > 100 µM | > 100 |  | 
16 | COC(=O)Nc1nc2ccc(NS(=O)(=O)c3ccc(F)cc3)cc2[nH]1 | 11.2 | 36.5 | > 100 | > 100 µM | 78.6 | 52.9 | > 100 | > 100 | > 100 µM | > 100 |  | 
17 | C=CC[C@@]1(C#N)C[C@H](C[C@]2(C#N)C[C@H](CCl)OC(C)(C)O2)OC(C)(C)O1 |  | > 100 | > 100 | > 100 µM | > 100 | > 100 | > 100 | > 100 | > 100 µM |  |  | 
18 | C[N+](C)(N)Cc1csc(-c2ccc(Cl)cc2)n1 | > 100 |  | > 100 | > 100 µM | > 100 | > 100 | > 100 | > 100 | > 100 µM | > 100 |  | 
19 | O=C(O)C1(CC(CCCN2CCCCC2)c2ccccc2)CCCC1 (stereo not given) | > 100 | > 100 | > 100 | > 100 µM | > 100 | > 100 | > 100 | > 100 | > 100 µM | > 100 |  | 
20 | COc1ccc(-c2c(C(C)=O)c(-c3ccccc3)n(C3OC(COC(C)=O)C(OC(C)=O)C(OC(C)=O)C3OC(C)=O)c(=S)c2C#N)cc1O (stereo not given) | > 100 | > 100 | > 100 | 79.3 µM and > 100 µM | > 100 |  |  | > 100 | 45.6 µM and > 100 µM | > 100 | 18.2 µM and 52.8 µM | 20.1 µM and > 100 µM
21 | COc1ccc(CCN2CCOCC2)cc1 | > 100 | > 100 | > 100 | > 100 µM | > 100 | > 100 |  | > 100 | > 100 µM | > 100 |  | 
22 | Cc1cc(C)c(N)c(C)c1N |  | > 100 | > 100 | > 100 µM | > 100 | > 100 | > 100 | > 100 | > 100 µM |  |  | 
